According to US20190352297A1, “SELECTIVE AURORA A KINASE INHIBITORS” (UNIVERSITAT BERN, priority 2017, published 2019):

Legend:
[1] = biological target: T1, GFP-Aurora A-Arg137Ala (Homo sapiens, UniProt O14965, R137A); assay: Phenotypic rescue, cells expressing mutant Aurora A; format: cell-based
T1 construct: All Aurora A clones were constructed using full-length Aurora A as a template; expressed in transfected cells; host or cells: HeLa Kyoto
T1 sequence (O14965 1-403 R137A): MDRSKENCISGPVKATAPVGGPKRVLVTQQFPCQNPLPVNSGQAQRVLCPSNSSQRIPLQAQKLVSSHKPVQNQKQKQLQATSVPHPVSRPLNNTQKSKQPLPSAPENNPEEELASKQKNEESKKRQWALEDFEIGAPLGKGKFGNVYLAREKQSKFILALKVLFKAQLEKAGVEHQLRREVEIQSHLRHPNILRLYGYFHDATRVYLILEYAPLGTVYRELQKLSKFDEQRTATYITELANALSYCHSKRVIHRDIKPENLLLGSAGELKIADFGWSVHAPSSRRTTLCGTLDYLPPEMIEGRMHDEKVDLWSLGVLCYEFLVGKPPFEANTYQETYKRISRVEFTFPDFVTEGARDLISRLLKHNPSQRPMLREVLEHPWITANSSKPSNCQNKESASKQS
Procedure: HeLa Kyoto cells were cultured in high-glucose DMEM with GlutaMAX (Life Technologies) media supplemented with 10% fetal calf serum (FCS) in a humidified 5% CO2 incubator at 37° C. For plasmid transfections, cells were seeded at 80-90% confluence. 4 μg of plasmid DNA in 100 μl OptiMEM and 4 μl of Lipofectamine 2000 (Life Technologies) in 100 μl OptiMEM were incubated in parallel for 5 minutes, mixed for 20 minutes and added to each well. All Aurora A clones were constructed using full-length Aurora A as a template with appropriate PCR primer pairs. […] GFP-Aurora AR137A and GFP-Aurora AW277A were engineered using a site directed mutagenesis kit (Agilent Technologies, no. 210515) with appropriate primers. For determining the mitotic index and the chromosome misalignment phenotype, cells were incubated with various concentrations of compounds for 20 h before analysis. Cells were likewise treated with 0.25 μM MLN8237 (Selleckchem, no. S1133) or 5 μM ZM447439 (Selleckchem, no. S1103). For flow cytometry analysis, 50 nM MLN8037 and 2.5 μM ZM447439 were used. […] To assess the impact of compound 9 on cell cycle progression, DNA content was analyzed after propidium iodide staining using FACS (BD Accuri C6 flow cytometer).

[2] = system: 456 kinases; assay: Kinome scan of 456 kinases (scanMAX); format: binding; settings: screened at 1 μM
Procedure: The kinome profiling of compound 9 was conducted by DiscoveRx. In total, 456 kinases were assayed (scanMAX). For most assays, kinase-tagged T7 phage strains were grown in parallel in 24-well blocks in an E. coli host derived from the BL21 strain. E. coli were grown to log-phase and infected with T7 phage from a frozen stock (multiplicity of infection=0.4) and incubated with shaking at 32° C. until lysis (90-150 minutes). The lysates were centrifuged (6000 g) and filtered (0.2 μm) to remove cell debris. The remaining kinases were produced in HEK-293 cells and subsequently tagged with DNA for qPCR detection. […] The liganded beads were blocked with excess biotin and washed with blocking buffer (SeaBlock (Pierce), 1% BSA, 0.05% Tween 20, 1 mM DTT) to remove unbound ligand and to reduce non-specific phage binding. […] Test compounds were prepared as 40× stocks in 100% DMSO and directly diluted into the assay. All reactions were performed in polypropylene 384-well plates in a final volume of 0.04 ml. […] The kinase concentration in the eluates was measured by qPCR. Compound 114 was screened at 1 μM, and results for primary screen binding interactions were reported as % of control (PoC). PoC=(test compound signal−positive control signal)/(DMSO signal−positive control signal). […] KD values were determined with a standard dose-response curve using the Hill equation.

[3] = biological target: T2, Aurora A (Trp277) (Homo sapiens, UniProt O14965); assay: Intrinsic tryptophan fluorescence; format: binding
T2 construct: human Aurora A kinase domain (residues 122-403 in the pET24-d vector); His-tag (cleaved yes); made in house; host or cells: E. coli BL21 (DE3) Rosetta
T2 sequence (O14965 122-403): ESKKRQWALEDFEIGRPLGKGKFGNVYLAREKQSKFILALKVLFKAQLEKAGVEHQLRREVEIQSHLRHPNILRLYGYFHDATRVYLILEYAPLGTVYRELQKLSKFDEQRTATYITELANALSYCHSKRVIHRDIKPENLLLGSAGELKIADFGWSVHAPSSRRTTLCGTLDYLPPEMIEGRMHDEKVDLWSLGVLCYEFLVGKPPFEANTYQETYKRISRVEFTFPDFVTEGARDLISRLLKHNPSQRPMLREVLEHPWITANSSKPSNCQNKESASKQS
Procedure: Binding experiments were performed by mixing Aurora A (500 nM, 375 nM, and 150 nM for 77, 9, and 88, respectively) with varying concentrations (0-100 μM) of the different compounds in buffer (final DMSO concentration 1%), followed by incubation for 15 min at room temperature. Tryptophan fluorescence spectra were recorded at room temperature using an Infinite M1000 Pro plate reader (Tecan) and Corning 96 well half area, flat bottom, non-binding surface, black polystyrene plates. Excitation occurred at 284 nm (bandwidth ±5 nm) and emission at 340 nm (bandwidth ±10 nm). The gain was calculated from the well with the highest protein concentration. Each measurement was done in triplicate.

[4] = biological target: T3, Aurora A / TPX2 (1-43) (Homo sapiens, UniProt O14965); assay: Microscale thermophoresis, Aurora A binding to labeled TPX2 1-43; settings: excess 9, three independent measurements
T3 construct: human Aurora A kinase domain (residues 122-403 in the pET24-d vector); His-tag (cleaved yes); made in house; host or cells: E. coli BL21 (DE3) Rosetta (Aurora A); E. coli Bl21 (DE3) (TPX2)
T3 sequence (O14965 122-403): T2 sequence (O14965 122-403)
Procedure: TPX2 was labelled using the Monolith NT.115 protein labelling kit RED (NanoTemper Technologies). The labelling was performed according to the manufacturer's instructions in the supplied labelling buffer applying a concentration of 44 μM peptide at room temperature for 30 min. Labelled TPX2 was adjusted to 400 nM with final buffer and 0.05% Tween-20 (NanoTemper Technologies). Aurora A kinase with or without ligand was dissolved in final buffer supplemented with 0.05% Tween-20, and a series of 12 dilutions (1:1) was prepared in the identical buffer, keeping the DMSO/ligand concentration constant (final concentrations 0.5% and 125 μM, respectively). Final protein concentrations were between 4.4 nM and 150 μM. […] Thermophoresis was measured at room temperature with 5 s/30 s/5 s laser off/on/off times. […] Data of three independent measurements were analyzed (NT.Analysis software, version 1.5.41, NanoTemper Technologies) using the thermophoresis signal after 10 sec. Points measured above 4.7 μM Aurora A were rejected.

- sensitivity of GFP-Aurora A-Arg137Ala to inhibitor [1]: insensitive
- tryptophan fluorescence, environment of Trp277 [3]: perturbed the environment of Trp277
- binding of Aurora to labeled TPX2 1-43 in the presence of inhibitor [4]: abolished
Compound: CCc1ccc(N=C2SC(=Cc3ccnc(Nc4ccc(C(=O)O)cn4)c3)C(=O)N2C)cc1 [Compound 9]
- kinome selectivity [2]: remarkably selective
